Measured values reported in patent US7678918B2, “Intermediates for imidazonaphthyridines” (3M Innovative Properties Company, priority 1997, dated 2010).

Tests used:
TNF = experiment: Cytokine Induction in Human Cells: tumor necrosis factor (TNF) secreted by PBMCs, ELISA; format: cell-based; conditions: 18 to 24 hours
From the text: (§1) An in vitro human blood cell system was used to assess cytokine induction by compounds of the invention. Activity is based on the measurement of interferon and tumor necrosis factor (ℑ) (IFN and TNF, respectively) secreted into culture media as described by Testerman et. al. In “Cytokine Induction by the Immunomodulators Imiquimod and S-27609”, Journal of Leukocyte Biology, 58, 365-372 (September, 1995). Blood Cell Preparation for Culture
(§2) Whole blood is collected by venipuncture into EDTA vacutainer tubes from healthy human donors. Peripheral blood mononuclear cells (PBMCs) are separated from whole blood by Histopaque®-1077 (Sigma Chemicals, St. Louis, Mo.) density gradient centrifugation. The PBMCs are suspended at 1.5-2×10^6 cells/mL in RPMI 1640 medium containing 10% fetal bovine serum, 2 mM L-glutamine and 1% penicillin/streptomycin solution (RPMI complete). 1 mL portions of PBMC suspension are added to 24 well flat bottom sterile tissue culture plates.
(§3) The compounds are solubilized in dimethyl sulfoxide (DMSO). The DMSO concentration should not exceed a final concentration of 1% for addition to the culture wells. The compounds are generally tested in a concentration range of from 0.1 to 100 μM.
(§4) The solution of test compound is added to the wells containing 1 mL of PBMCs in media. The plates are covered with plastic lids, mixed gently and then incubated for 18 to 24 hours at 37° C. with a 5% carbon dioxide atmosphere.
(§5) Following incubation the plates are centrifuged for 5-10 minutes at 1000 rpm (˜200×g) at 4° C. The cell culture supernatant is removed with a sterile polypropylene pipet and transferred to a 2 mL sterile cryotube. Samples are maintained at −70° C. until analysis.
Tumor necrosis factor (ℑ) (TNF) concentration is determined using an ELISA kit available from Genzyme, Cambridge, Mass. The results are expressed as pg/mL.

IFN = experiment: Cytokine Induction in Human Cells: interferon (IFN) secreted by PBMCs, A549/encephalomyocarditis bioassay; format: cell-based; conditions: 18 to 24 hours
From the text: as §1, §2, §3, §4, §5
Interferon is determined by bioassay using A549 human lung carcinoma cells challenged with encephalomyocarditis. The details of the bioassay method have been described by G. L. Brennan and L. H. Kronenberg in “Automated Bioassay of Interferons in Micro-test Plates”, Biotechniques, June/July 78, 1983, incorporated herein by reference. Briefly stated the method is as follows: A549 cells are incubated with samples and standard interferon dilutions at 37° C. for 24 hours. The incubated cells are then infected with an inoculum of encephalomyocarditis virus. The infected cells are incubated for an additional 24 hours at 37° C. before quantifying for viral cytopathic effect. The viral cytopathic effect is quantified by staining followed by visual scoring of the plates. Results are expressed as alpha reference units/mL based on the value obtained for NIH Human Leukocyte IFN standard.
Further: call rule not given here.

Row | SMILES | TNF induction (TNF; Dose Concentration 0.1 μM) | TNF induction (TNF; Dose Concentration 1.0 μM) | TNF induction (TNF; Dose Concentration 10.0 μM) | TNF induction (TNF; Dose Concentration 100.0 μM) | IFN induction (IFN; Dose Concentration 0.1 μM) | IFN induction (IFN; Dose Concentration 1.0 μM) | IFN induction (IFN; Dose Concentration 10.0 μM) | IFN induction (IFN; Dose Concentration 100.0 μM)
1 | CCCCc1nc2c(N)nc3cccnc3c2n1CCNC(=O)c1cccnc1Cl [Example 147] | − | − | + | + | − | + | + | +
2 | CCCCc1nc2c(N)nc3cccnc3c2n1CCNC(=O)c1ccc(F)cc1 [Example 129] |  | + | + | + |  | + | + | +
3 | CCCCc1nc2c(N)nc3cccnc3c2n1CCCCNC(=O)c1c(C)cc(C)cc1C [Example 180] | ± | + | + | + | + | + | + | +
4 | CCCCc1nc2c(N)nc3cccnc3c2n1CCCCNC(=O)c1ccc(F)cc1 [Example 166] | − | + | + | − | − | + | + | −
5 | CCCCc1nc2c(N)nc3cccnc3c2n1CCCCNC(=O)Oc1ccccc1 [Example 50, Phenyl N-[4-(4-Amino-2-butyl-1H-imidazo[4,5-c][1,5]naphthyridin-1-yl)butyl]carbamate] |  | + | + | − |  | + | + | −
6 | CCCCc1nc2c(N)nc3cccnc3c2n1CCNC(=O)CCC(=O)c1cccs1 [Example 212] | − | + | + | + | − | + | + | +
7 | CCCCc1nc2c(N)nc3cccnc3c2n1CCNC(=O)Cc1ccc(SC)cc1 [Example 197] | − | + | + | + | − | − | + | +
8 | CCCCc1nc2c(N)nc3cccnc3c2n1CCNC(=O)CC1CCCC1 [Example 124] |  | − | + | + |  | + | + | +
9 | CCCCc1nc2c(N)nc3cccnc3c2n1CCNC(=O)C1CC(=O)N(Cc2ccc(Cl)cc2)C1 (stereo not drawn) [Example 210] | + | + | + | + | − | − | + | +
10 | CCCCc1nc2c(N)nc3cccnc3c2n1CCCCNC(=O)COCc1ccccc1 [Example 157] | − | − | + | − | + | + | + | −
11 | CCCCc1nc2c(N)nc3cccnc3c2n1CCCCNC(=O)CC1CCCC1 [Example 160] | − | + | + | − | + | + | + | −
12 | CCCCc1nc2c(N)nc3cccnc3c2n1CCCCNC(=O)C1CC1 [Example 173] | − | + | + | + | + | + | + | +
